Measurements as given in patent US20250057864A1, “COMPOSITION FOR IMPROVING EXERCISE PERFORMANCE COMPRISING GYPENOSIDE COMPOUND AS ACTIVE INGREDIENT” (BTC CORPORATION, priority 2022, published 2025).

Columns and labels:
[1] = system: TFam, CPT1-β, mtDNA in C2C12 cells; test: mRNA expression related with mitochondrial replication in C2C12 cells (real-time RT-PCR); type: cell-based, mice; details: C2C12, 0.36 μg/mL (Cr 5 μg/mL), control G1 = 1.00
Description: (§1) C2C12 cells were dispensed into a 6-well plate at 2×10^5 cells/well and stabilized for 24 hours. In order to investigate the effect of each test substance on muscle cell differentiation, each test substance was added to the myocyte differentiation medium. The cells were cultured for 4 days (mRNA analysis) or 7 days (protein analysis) after exchanging the cell culture medium with the myocyte differentiation medium treated with each test substance, as shown in Table 2.
(§2) C2C12 cells were dispensed into a 6-well plate at 2×10^5 cells/well and stabilized for 24 hours. The cells were cultured for 2 or 4 days after replacing the cell culture with a myocyte differentiation medium containing the test substance. After collecting the cells, total RNA was isolated using an RNeasy Plus Mini kit (QIAGEN), and quantified using a micro-volume spectrophotometer (BioSpec-nano, Shimadzu). RNAs with an OD260/280 value greater than 1.8 were used for experiment.
(§3) After obtaining cDNA from the total RNA (2 μg) using a HyperScript™ RT master mix kit (GeneAll Biotechnology), real-time PCR was performed using a Rotor-Gene 300 PCR kit (Corbett Research) and a Rotor-Gene™ SYBR Green kit (QIAGEN). Quantitative analysis of the gene expression was performed using the Rotor-Gene 6000 Series System Software program (Corbett Research).
The effect of the treatment of C2C12 cells with the test substances on the mRNA expression of mtDNA, Tfam and CPT-1β associated with mitochondrial replication was investigated.

[2] = system: PGC1α, AMPK, p38, Nrf2 in gastrocnemius muscle (GA); test: Western blot of proteins associated with PGC-1α activation in gastrocnemius muscle (GA); type: in vivo, ICR mice
soleus muscle (SOL) = test: mRNA expression in soleus muscle (SOL), real-time RT-PCR; type: in vivo, ICR mice
Description: After an acclimatization period of 1 week, healthy animals were selected and divided into 6 groups according to the randomized block design. The animals were divided into (G1) a non-exercise control group, (G2) a non-exercise+7 mg/kg body weight (BW) Example 1 group, (G3) a non-exercise+7 mg/kg BW Example 2 group, (G4) a non-exercise+7 mg/kg BW Example 3 group, (G5) a non-exercise+7 mg/kg BW Example 4 group, (G6) an exercise control group, (G7) an exercise+7 mg/kg BW Example 1 group, (G8) an exercise+7 mg/kg BW Example 2 group, (G9) an exercise+7 mg/kg BW Example 3 group, (G10) an exercise+7 mg/kg BW Example 4 group, and (G11) an exercise+75 mg/kg BW Cr dose group. Each test group consisted of 10 animals.
Total RNA was isolated from the muscle tissue (SOL) collected at the end of the test using a TRizol reagent (Thermo Fisher Scientific), and quantified using a micro-volume spectrophotometer (BioSpec-nano, Shimadzu). RNAs with OD260/280 values above 1.8 were used for experiment. After obtaining cDNA from the total RNA (2 μg) using a HyperScript™ RT master mix kit (GeneAll Biotechnology), real-time PCR was performed using a Rotor-Gene 300 PCR kit (Corbett Research) and a Rotor-Gene™ SYBR Green kit (QIAGEN). Quantitative analysis of the gene expression was performed using the Rotor-Gene 6000 Series System Software program (Corbett Research).
Muscle can be classified into slow muscle and fast muscle depending on the physiological rate of contraction. […] Therefore, the effect of endurance exercise training and the administration of the test substances on the expression of antioxidant-related genes (SOD2, GPx1, UCP2, UCP3), LDH-related genes (ERRα, LDH B, MCT1), mitochondrial synthesis-related genes (Tfam, CPT-1β, mtDNA, NRF1) and energy metabolism-related genes (PGC-1α, GYS, PPARγ, PPARδ) in the soleus muscle, which is a slow muscle, was investigated.

[3] = system: MHC1, MHC7, MHC2A, MHC2B, PGC-1α, PKB, FNDC5 in C2C12 cells; test: mRNA expression of genes related with muscular strength type in C2C12 cells; type: cell-based, mice; details: C2C12, 0.36 μg/mL (Cr 5 μg/mL), control G1 = 1.00
Description: as §1, §2, §3
The effect of the compositions according to Examples 1 to 4 on the mRNA expression of MHC1, MHC7, MHC2A and MHC2B, which are responsible for muscular strength type, was investigated.
The result of investigating the effect of the compositions according to Examples 1 to 4 on the mRNA expression of PGC-1α, PKB and FNDC5 on the muscular strength type is shown in Table 10.

[4] = GA muscle, treadmill exercise, 7 mg/kg BW (Cr 75 mg/kg BW), G1 = 1.00
[5] = SOL muscle, treadmill exercise, 7 mg/kg BW (Cr 75 mg/kg BW), G1 = 1.00
[6] = GA muscle, non-exercise, 7 mg/kg BW, G1 = 1.00
[7] = SOL muscle, non-exercise, 7 mg/kg BW, G1 = 1.00

CN(CC(=O)O)C(=N)N.O [Cr, Creatine monohydrate, reference compound]
mRNA expression CPT1-β [1]: 0.93 ± 0.20
mRNA expression Tfam [1]: 0.48 ± 0.07
p-AMPK/AMPK ratio [2, 4]: 1.43 ± 0.13
p-Nrf2/Nrf2 ratio [2, 4]: 1.35 ± 0.17
p-PGC1α/PGC1α ratio [2, 4]: 2.28 ± 0.84^++
p-p38/p38 ratio [2, 4]: 1.94 ± 0.16^+
mRNA expression CPT-1β (soleus muscle (SOL); [5]): 0.95 ± 0.28^++
mRNA expression ERRα (soleus muscle (SOL); [5]): 0.58 ± 0.19^+
mRNA expression GPx1 (soleus muscle (SOL); [5]): 1.92 ± 0.29^+
mRNA expression GSY (soleus muscle (SOL); [5]): 0.92 ± 0.31
mRNA expression LDH B (soleus muscle (SOL); [5]): 0.35 ± 0.11^+
mRNA expression MCT1 (soleus muscle (SOL); [5]): 0.99 ± 0.31^++
mRNA expression NRF1 (soleus muscle (SOL); [5]): 9.17 ± 2.18
mRNA expression PGC1α (soleus muscle (SOL); [5]): 5.09 ± 1.22^+
mRNA expression PPARγ (soleus muscle (SOL); [5]): 0.29 ± 0.05
mRNA expression PPARδ (soleus muscle (SOL); [5]): 3.82 ± 0.90^++
mRNA expression SOD2 (soleus muscle (SOL); [5]): 1.52 ± 0.08^+
mRNA expression Tfam (soleus muscle (SOL); [5]): 1.34 ± 0.07^
mRNA expression UCP2 (soleus muscle (SOL); [5]): 14.96 ± 1.96^+++
mRNA expression UCP3 (soleus muscle (SOL); [5]): 0.87 ± 0.22
mRNA expression mtDNA (soleus muscle (SOL); [5]): 1.69 ± 0.20^
mRNA expression FNDC5 [3]: 1.83 ± 0.47
mRNA expression MHC1 [3]: 4.50 ± 1.43
mRNA expression MHC2A [3]: 1.74 ± 0.22
mRNA expression MHC2B [3]: 1.10 ± 0.10
mRNA expression MHC7 [3]: 7.87 ± 2.66
mRNA expression PGC-1α [3]: 1.54 ± 1.10
mRNA expression PKB [3]: 2.18 ± 0.51

CC(C)=CCC[C@](C)(O)C1CC[C@]2(C)C1[C@H](O)CC1[C@@]3(C)C[C@@H](O)C(OC4OC(CO)C(O)C(O)C4OC4OC(CO)C(O)C(O)C4O)C(C)(C)C3CC[C@]12C (stereo partly shown) [Example 1, Gypenoside L]
mRNA expression CPT1-β [1]: 1.83 ± 0.41
mRNA expression Tfam [1]: 0.91 ± 0.10
mRNA expression mtDNA [1]: 1.29 ± 0.41
p-AMPK/AMPK ratio ([2]; 7 mg/kg): 1.41 ± 0.14
p-Nrf2/Nrf2 ratio ([2]; 7 mg/kg): 1.30 ± 0.16
p-PGC1α/PGC1α ratio ([2]; 7 mg/kg): 1.98 ± 0.34^+
p-p38/p38 ratio ([2]; 7 mg/kg): 1.86 ± 0.13^+
p-AMPK/AMPK ratio [2, 6]: 1.22 ± 0.09
p-Nrf2/Nrf2 ratio [2, 6]: 1.02 ± 0.06
p-PGC1α/PGC1α ratio [2, 6]: 1.14 ± 0.07
p-p38/p38 ratio [2, 6]: 1.71 ± 0.16
mRNA expression CPT-1β (soleus muscle (SOL); 7 mg/kg): 0.86 ± 0.04^++
mRNA expression ERRα (soleus muscle (SOL); 7 mg/kg): 1.41 ± 0.22
mRNA expression GPx1 (soleus muscle (SOL); 7 mg/kg): 3.28 ± 0.36^++
mRNA expression GSY (soleus muscle (SOL); 7 mg/kg): 0.27 ± 0.06
mRNA expression LDH B (soleus muscle (SOL); 7 mg/kg): 1.26 ± 0.46
mRNA expression MCT1 (soleus muscle (SOL); 7 mg/kg): 0.56 ± 0.25^+
mRNA expression NRF1 (soleus muscle (SOL); 7 mg/kg): 29.20 ± 3.10^++
mRNA expression PGC1α (soleus muscle (SOL); 7 mg/kg): 2.73 ± 0.51
mRNA expression PPARγ (soleus muscle (SOL); 7 mg/kg): 5.82 ± 1.27^+
mRNA expression PPARδ (soleus muscle (SOL); 7 mg/kg): 2.42 ± 0.45^+
mRNA expression SOD2 (soleus muscle (SOL); 7 mg/kg): 1.47 ± 0.13^+
mRNA expression Tfam (soleus muscle (SOL); 7 mg/kg): 1.98 ± 0.42^+
mRNA expression UCP2 (soleus muscle (SOL); 7 mg/kg): 6.91 ± 1.47^++
mRNA expression UCP3 (soleus muscle (SOL); 7 mg/kg): 0.64 ± 0.10
mRNA expression CPT-1β (soleus muscle (SOL); [7]): 0.34 ± 0.02
mRNA expression ERRα (soleus muscle (SOL); [7]): 1.67 ± 0.22
mRNA expression GPx1 (soleus muscle (SOL); [7]): 0.89 ± 0.10
mRNA expression GSY (soleus muscle (SOL); [7]): 2.60 ± 0.51
mRNA expression LDH B (soleus muscle (SOL); [7]): 1.76 ± 0.49
mRNA expression MCT1 (soleus muscle (SOL); [7]): 0.41 ± 0.03
mRNA expression NRF1 (soleus muscle (SOL); [7]): 15.52 ± 2.59
mRNA expression PGC1α (soleus muscle (SOL); [7]): 0.88 ± 0.08
mRNA expression PPARγ (soleus muscle (SOL); [7]): 0.25 ± 0.00
mRNA expression PPARδ (soleus muscle (SOL); [7]): 2.87 ± 0.95
mRNA expression SOD2 (soleus muscle (SOL); [7]): 1.16 ± 0.03
mRNA expression Tfam (soleus muscle (SOL); [7]): 4.74 ± 0.32
mRNA expression UCP2 (soleus muscle (SOL); [7]): 1.23 ± 0.05
mRNA expression UCP3 (soleus muscle (SOL); [7]): 0.51 ± 0.09
mRNA expression mtDNA (soleus muscle (SOL); [7]): 1.29 ± 0.12
mRNA expression mtDNA (soleus muscle (SOL); [5]): 4.66 ± 0.64^++
mRNA expression FNDC5 [3]: 2.97 ± 0.39
mRNA expression MHC1 [3]: 10.30 ± 1.75
mRNA expression MHC2A [3]: 1.54 ± 0.32
mRNA expression MHC2B [3]: 1.20 ± 0.12
mRNA expression MHC7 [3]: 1.80 ± 0.41
mRNA expression PGC-1α [3]: 11.75 ± 3.82
mRNA expression PKB [3]: 3.04 ± 0.46
